Measurements taken from patent publication US12116355B2, “Deuterated 1-piperazino-3-phenyl indanes for treatment of schizophrenia” (H. Lundbeck A/S, priority 2011, dated 2024).
Where two headings read alike, the source gives them in different places.

Experiments:
[1] = tested on: D2 receptors in rat brain; test: In vivo binding to D2 receptors in rat brain; conditions: 20 mg/kg subcutaneous 30 minutes before [3H]-raclopride i.v.
Method: Description of In Vivo Binding to D2 Receptors in Rat Brain
Briefly, 6 rats (male Wistar, 180-200 g) were treated with 20 mg/kg test compound subcutaneous 30 minutes before receiving 9.4 micro Ci [^3H]-raclopride intravenously via the tail vein.
15 minutes after the injection of the radio ligand, the animals were killed by cervical dislocation, the brain quickly removed, and striatum and cerebellum dissected out and homogenized in 5 mL (cerebellum in 20 mL) ice-cold buffer (50 mM K3PO4, pH 7.4). 1.0 mL of the homogenate was filtered through 0.1% PEI-soaked Whatman GF/C filters. This was completed within 60 seconds subsequent to the decapitation. Filters were washed 2 times with 5 mL ice-cold buffer and counted in a scintillation counter. A group of vehicle-treated animals was used to determine [^3H]-raclopride total binding in striatum and non-specific binding in cerebellum.

[2] = Solubility of salts of Compound (IV); assay type: physicochemical
[3] = pKa determination by potentiometric titration / Dip Probe Absorption Spectroscopy; assay type: physicochemical; conditions: ion strength 0.16, extrapolated to zero MeOH
Method: pKa was determined by potentiometric titration of the base at ion strength 0.16 using MeOH as co-solvent. Three series of three repeated titrations on the same solution of the sample was performed in a conventional way from low to high pH and a difference curve was created from each of these titrations by blank subtraction. The apparent pKa-value at each MeOH:water ratio is calculated from the difference curves, and the pKa value is determined by extrapolation to zero MeOH content.
The lower pKa was determined by Dip Probe Absorption Spectroscopy detection during titration of the base at ion strength 0.16 using MeOH as co-solvent. The change in absorption spectra as a function of ionisation is used to calculate the pKa value. Two series of three repeated titrations on the same solution of the sample was performed from low to high pH, with a photo diode array as additional detection. The apparent pKa value at each MeOH:water ratio is calculated by target factor analysis on the change in absorption spectra, and the pKa value is determined by extrapolation to zero MeOH content.

[4] = Log P / log D profile by titration with n-octanol; assay type: physicochemical; conditions: n-octanol:water, 27° C., ion strength approximately 0.16
Method: A series of three repeated titrations on the same sample in solution was performed, from low to high pH. The first titration was performed with a small amount of n-octanol present in the solution, the second and third with increasing amounts.
A difference curve was created from each of these titrations by blank subtraction, and from these difference curves, the apparent pKa values (poKa) were calculated. From the change in the apparent pKa values (ΔpKa) with the n-octanol:water ratio combined with the real pKa value, the Log P value was calculated and the Log D profile was derived.

[5] = target: recombinant human liver CYP3A4 (Homo sapiens (Human), UniProt P08684); test: Metabolism by recombinant human liver CYP3A4; assay type: in vitro ADME
Method: (§1) The protein concentration was 0.5 mg/mL and the final volume was 0.5 mL. […] After 0, 15, 30, 60, 90, 120, and 180 minutes, the reactions were terminated by transferring the subcellular fraction to 0.5 mL of stopping reagent containing internal standard. The incubations were carried out in triplicate. The samples were centrifuged at 4000×g (4° C., 15 minutes) and the supernatants were analyzed by HPLC-MS/MS. Data were expressed as MS area relative to an internal standard.

catalepsy in rats [6] = test: Catalepsy test in rats; assay type: in vivo, rats (male Sprague Dawley); conditions: tartrate s.c. 30 minutes before test
Excerpt: Catalepsy is thought to reflect drug-induced suppression of the ability to initiate a behavioral response. The catalepsy test in rats is a common and widely used preclinical screening test for the EPS liability of potentially antipsychotic drugs. Although catalepsy is usually assessed following acute drug administration, the test has proven to be a reliable predictor for the propensity of an antipsychotic drug to induce EPS (that is, pseudo parkinsonism, dystonia) in humans (Elliott, P. J. et al, J. Neural. Transm. Park. Dis. Dement. Sect. 1990, 2, 79-89; herein incorporated by reference in its entirety). […] The minimal effective dose inducing catalepsy was 10 mg/kg (FIG. 17). […] Eight male Sprague Dawley rats were used in each group. # indicates P<0.05, ## indicates P<0.01 versus vehicle (One-way ANOVA followed by Bonferroni post-hoc test). This dose is 100 times higher than the dose indicating antipsychotic activity (FIG. 16).

[7] = Human pharmacokinetic multiple oral dose study; assay type: in vivo; conditions: male, healthy young men, 3 mg daily oral for 18 days, plasma after last dose, read-out: mean AUC 0-24 of parent compound
Excerpt: The pharmacokinetics of Compound (IV) and Compound (X) were compared in a multiple oral dose study in healthy young men.

[8] = target: recombinant human liver CYP2C19 (Homo sapiens (Human), UniProt P33261); test: Metabolism by recombinant human liver CYP2C19; assay type: in vitro ADME
Method: as §1

[9] = Metabolism in pooled human liver microsomes, formation of desmethyl metabolite; assay type: in vitro ADME
Method: Pooled human liver microsomes (50 donors, from Xenotech) were incubated with 1 μM or 10 μM of compound at 37° C. […] The protein concentration was 0.2 mg/mL and the final volume was 0.5 mL. Following a 10-minute pre-incubation, the reaction was initiated by adding Compound. After 0, 15, 30, 60, 90, 120, and 180 minutes, the reactions were terminated by transferring the subcellular fraction to 0.5 mL of stopping reagent containing internal standard. The incubations were carried out in triplicate. The samples were centrifuged at 4000 g (4° C., 15 min) and the supernatants were analyzed by HPLC-MS/MS. Data were expressed as MS area relative to an internal standard.

catalepsy in rats [10] = conditions: fumarate salt, J. Med. Chem. 1995, 38, 4380-4392; cited from earlier work
D2 = conditions: in vitro, J. Med. Chem. 1995, 38, 4380-4392; cited from earlier work
D1 = conditions: in vitro, J. Med. Chem. 1995, 38, 4380-4392; cited from earlier work
5-HT2 = conditions: J. Med. Chem. 1995, 38, 4380-4392; cited from earlier work
[11] = tested on: cryopreserved dog hepatocytes; test: Metabolism in cryopreserved dog hepatocytes, formation of desmethyl metabolite; assay type: in vitro ADME, dog (male Beagle dog); conditions: for amount of desmethyl metabolite (Compound (XI)) produced, versus Compound (X): cryopreserved dog hepatocytes
Method: Cryopreserved dog (male Beagle dog) hepatocytes (1 million cells/mL in suspension, 50 μL/well) were pre-incubated for 15 minutes in a 96-well plate at 37° C. water bath in DMEM high glucose buffered with 1 M HEPES.

[12] = tested on: PCP-induced hyperactivity in mice; test: PCP-induced hyperactivity in mice; conditions: hydrogen tartrate s.c. 30 minutes before test, PCP 2.3 mg/kg s.c.
Method: Locomotor activity was measured for 60 minutes as number of beam breaks (counts). Eight-to-16 male mice were used in each group. ##indicates P<0.01 versus Vehicle-PCP (One-way analysis of variance [ANOVA] followed by Bonferroni post-hoc test).

Chain of recombinant human liver CYP3A4 (P08684 whole entry): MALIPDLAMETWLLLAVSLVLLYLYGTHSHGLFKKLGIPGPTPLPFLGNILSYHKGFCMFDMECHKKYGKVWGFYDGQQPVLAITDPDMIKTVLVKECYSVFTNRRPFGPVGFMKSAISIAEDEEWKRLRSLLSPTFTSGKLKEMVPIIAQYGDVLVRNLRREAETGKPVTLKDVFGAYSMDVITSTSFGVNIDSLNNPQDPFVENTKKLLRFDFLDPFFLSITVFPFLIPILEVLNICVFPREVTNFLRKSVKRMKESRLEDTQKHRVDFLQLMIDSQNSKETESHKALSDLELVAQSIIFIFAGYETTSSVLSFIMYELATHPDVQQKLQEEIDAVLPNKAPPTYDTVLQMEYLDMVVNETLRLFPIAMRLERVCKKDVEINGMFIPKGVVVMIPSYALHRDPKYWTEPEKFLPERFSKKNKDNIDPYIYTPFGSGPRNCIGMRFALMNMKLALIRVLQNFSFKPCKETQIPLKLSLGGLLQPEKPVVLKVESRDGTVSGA
Chain of recombinant human liver CYP2C19 (P33261 whole entry): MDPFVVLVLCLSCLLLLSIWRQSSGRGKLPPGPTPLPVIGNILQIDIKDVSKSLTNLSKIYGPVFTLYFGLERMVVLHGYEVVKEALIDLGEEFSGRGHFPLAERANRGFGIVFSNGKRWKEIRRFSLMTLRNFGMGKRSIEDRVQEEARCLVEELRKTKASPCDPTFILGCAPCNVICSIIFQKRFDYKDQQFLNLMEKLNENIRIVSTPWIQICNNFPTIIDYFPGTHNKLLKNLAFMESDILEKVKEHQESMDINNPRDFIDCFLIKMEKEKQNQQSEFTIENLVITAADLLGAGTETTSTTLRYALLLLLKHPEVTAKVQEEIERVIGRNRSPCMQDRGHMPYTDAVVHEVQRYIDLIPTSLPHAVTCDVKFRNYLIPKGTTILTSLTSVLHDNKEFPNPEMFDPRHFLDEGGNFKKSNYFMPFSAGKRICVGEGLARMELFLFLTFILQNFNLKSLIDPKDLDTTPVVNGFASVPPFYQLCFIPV

[2H]c1c([2H])c([2H])c([C@@H]2C[C@@H](N3CCN(C([2H])([2H])[2H])C(C)(C)C3)c3cc(Cl)ccc32)c([2H])c1[2H] (single isomer, unassigned) [Compound (IV)]
occupancy of D2 receptors by in vivo binding [1]: 70% | solubility ([2]; pH 7.6): 100 µg/mL | pH of solubility solution ([2]; salts of Compound (IV)): 7.6 | pKa ([3]; Dip Probe Absorption Spectroscopy, read-out: lower pKa): 2.5 ± 0.1 | pKa ([3]; potentiometric titration, read-out: high pKa): 8.9 ± 0.1 | logP [4]: 5.4 ± 0.4 | logD ([4]; pH 7.4, read-out: Log D7.4): 3.9 ± 0.4 | amount of desmethyl metabolite produced, versus Compound (X) ([5]; 1 mM (so in the source)): lower | amount of desmethyl metabolite produced, versus Compound (X) ([5]; 10 mM (so in the source)): lower | induction of catalepsy (catalepsy in rats [6]): dose-dependently induced catalepsy | minimal effective dose inducing catalepsy (catalepsy in rats [6]): 10 mg/kg | AUC(0-t) [7]: 104 ng·h/mL | amount of desmethyl metabolite produced, versus Compound (X) ([8]; 1 μM): lower | amount of desmethyl metabolite produced, versus Compound (X) ([8]; 10 μM): Corresponding results | amount of desmethyl metabolite produced, versus Compound (X) ([9]; 1 μM): lower | amount of desmethyl metabolite produced, versus Compound (X) ([9]; 10 μM): lower

CN1CCN([C@@H]2C[C@@H](c3ccccc3)c3ccc(Cl)cc32)CC1(C)C [Compound (X), 4-((1R,3S)-6-Chloro-3-phenyl-indan-1-yl)-1,2,2-trimethyl-piperazine]
catalepsy in rats (catalepsy in rats [10]): does not induce catalepsy | D2 antagonism (D2): potent D1/D2 antagonist | D1 antagonism (D1): potent D1/D2 antagonist | AUC(0-t) [7]: 98 ng·h/mL | 5-HT2 antagonism (5-HT2): potent 5-HT2 antagonist

[2H]C([2H])([2H])N1CCN([C@@H]2C[C@@H](c3ccccc3)c3ccc(Cl)cc32)CC1(C)C [Compound (I), 4-((1R,3S)-6-chloro-3-phenyl-indan-1-yl)-1-methyl-d3-2,2-dimethyl-piperazine]
amount of desmethyl metabolite (Compound (XI)) produced, versus Compound (X) ([11]; 0.1 μM): lower | amount of desmethyl metabolite (Compound (XI)) produced, versus Compound (X) ([11]; 1 μM): lower | decrease in formation of the desmethyl metabolite (Compound (XI)) in comparison to Compound (X) ([11]; dog hepatocytes): approximately 50%

CN1CCN([C@@H]2C[C@@H](c3ccccc3)c3ccc(Cl)cc32)CC1(C)C (single isomer, unassigned) [Compound (IV)]
reversal of PCP-induced hyperactivity (locomotor activity) [12]: dose-dependently reverses

[2H]c1c([2H])c([2H])c([C@@H]2C[C@@H](N3CCN(C)C(C)(C)C3)c3cc(Cl)ccc32)c([2H])c1[2H] (single isomer, unassigned) [Compound (II)]
occupancy of D2 receptors by in vivo binding [1]: 75% | amount of desmethyl metabolite produced, versus Compound (X) ([5]; 1 mM (so in the source)): lower | amount of desmethyl metabolite produced, versus Compound (X) ([5]; 10 mM (so in the source)): lower | amount of desmethyl metabolite produced, versus Compound (X) ([8]; 1 μM): Corresponding results | amount of desmethyl metabolite produced, versus Compound (X) ([8]; 10 μM): lower | amount of desmethyl metabolite produced, versus Compound (X) ([9]; 1 μM): lower | amount of desmethyl metabolite produced, versus Compound (X) ([9]; 10 μM): lower
